US20110319398A1 (priority 2010, published 2011)

Key:
[1] = test system: YopE translocation into HEp-2 cells; type: cell-based, Y. pseudotuberculosis; settings: 60 μM compound; HEp-2 cells infected with Yptb, 45 minutes
Yptb WT IP2666 = type: cell-based, Y. pseudotuberculosis; settings: 60 μM compound, 26 C, 7 hrs
[2] = test system: YopE translocation into the cytosol of HEp-2 cells; type: cell-based, Y. pseudotuberculosis; settings: 60 μM compound, compared to DMSO control
[3] = test system: YopE leaked into culture supernatants; type: cell-based, Y. pseudotuberculosis; settings: 60 μM compound, HEp-2 cells infected with WT Yptb, compared to DMSO
[4] = test system: ExoS translocation from P. aeruginosa Pa388 into HEp-2 cells; type: cell-based
HEp-2 cells = assay: LDH release assay; type: cell-based; settings: 60 μM compound, absence of Yptb
Experimental: Compounds were resuspended in RPMI supplemented with 5% FBS to a final concentration of 60 μM. Media was replaced with a volume of 100 μL and cells were incubated at 37 C and 5% CO2. A 50 μL sample was taken from the wells at 2 hrs and 24 hrs for quantification of LDH. LDH in supernatants was quantified using the Promega Cytotox 96 Non-Radioactive Cytotoxicity Assay Kit. Control samples for lysis in the absence of compounds were incubated for 45 minutes in Lysis Buffer (supplied in the kit) then collected at the same time points. The OD at 492 nm was measured spectrophotometrically on a SpectraMax 5 plate reader (Molecular Devices, Sunnyvale, Calif.).
The remaining 12 compounds were evaluated for toxicity to either Yptb or HEp-2 cells. […] The 9 non-antibacterial compounds were assessed for their ability to cause damage to epithelial cells by monitoring the release of lactate dehydrogenase (LDH), a cytoplasmic enzyme whose presence in cell supernatants indicates membrane damage. HEp-2 cells were incubated with 60 μM of each compound, in the absence of Yptb. Tissue culture supernatants were collected after 2 or 24 hours and assessed for LDH levels. […] In contrast, C35 had above baseline LDH release levels at 2 hours and this effect was exacerbated at 24 hours (FIG. 3B). […] Because of the high-level of toxicity caused by C35 at both time points, it was excluded from further characterization. In all subsequent experiments with the remaining 8 compounds, HEp-2 cells were exposed to compounds for 2 hours or less.

[5] = test system: YscF polymer (TTSS needle); parameters: species or system Y. pseudotuberculosis; settings: 60 μM compound, 1 mM BS3, Western blot with α-YscF
[6] = test system: adherence of Yptb to HEp-2 cells; type: cell-based, Y. pseudotuberculosis
[7] = test system: YadA-mediated autoagglutination; type: cell-based, Y. pseudotuberculosis; settings: 60 μM C20, 3 hrs at 37 C
[8] = test system: Sheep red blood cells infected with Yptb; type: cell-based
YscF = type: cell-based, Y. pseudotuberculosis; settings: 60 μM compound, 5 mM CaCl2, 37 C, 1.5 hours
Yop secretion = type: cell-based, Y. pseudotuberculosis; settings: 60 μM compound, secretion media (absence of calcium), 37 C
V. cholerae [9] = settings: mouse, in vivo; cited from earlier work
V. cholerae [10] = settings: cited from earlier work

Row | Structure (SMILES) | Effect on bacterial growth (OD600) (Yptb WT IP2666) | YopE/Yop leakage into culture supernatants [3] | ExoS-dependent cell rounding [4] | LDH release at 24 hours (HEp-2 cells) | YscF cross-linking pattern (dimer crosslink) [5] | also measured
1 | CCOc1ccc(NC(=O)c2cnccn2)cc1 [Compound C7, N-(4-ethoxyphenyl)pyrazine-2-carboxamide] | no effect on bacterial growth | significant leakage | little or no effect | – | – | Inhibition of YopE-mediated cell rounding [1]: cell-rounding defect was weak; YopE translocation into HEp-2 cells [2]: did not inhibit translocation of YopE
2 | O=C1NC2=C(C(=O)c3ccccc32)C(c2ccccc2)S1 (centres unmarked) [Compound C15, 4-phenyl-1,4-dihydroindeno[1,2-d][1,3]thiazine-2,5-dione] | no effect on bacterial growth | significant leakage | little or no effect | did not cause further membrane damage | weaker dimer crosslink | LDH release at 2 hours (HEp-2 cells; 2 hours): elevated LDH release
3 | O=C(c1coc2nc3ccccc3nc12)N1CCN(c2ccccc2)CC1 [Compound C19, furo[3,2-b]quinoxalin-3-yl-(4-phenylpiperazin-1-yl)methanone] | no effect on bacterial growth | significant leakage | little or no effect | – | – | –
4 | Cc1nn(-c2ccccc2)c(C)c1/N=C/c1c(O)ccc2ccccc12 [Compound C20, 1-[(E)-(3,5-dimethyl-1-phenyl-pyrazol-4-yl)iminomethyl]naphthalen-2-ol] | no effect on bacterial growth | elevated levels of Yop leakage | reduced cell-rounding | slightly elevated LDH release | weaker dimer crosslink | Binding of Invasin-deleted (Δinv) Yptb to HEp-2 cells [6]: did not block the ability of C20 to further inhibit binding; Binding of Yptb to HEp-2 cells, of the levels of the DMSO-treated control ([6]; 60 μM compound, WT Yptb, ELISA): 15-20%; Autoagglutination activity of Yptb [7]: unaffected; Hemolysis (leakage of hemoglobin) of SRBCs infected with Yptb [8]: slightly reduced leakage of hemoglobin
5 | c1ccc2c(-c3csc(-c4ccncc4)n3)c[nH]c2c1 [Compound C24, 4-(1H-indol-3-yl)-2-(4-pyridyl)thiazole] | no effect on bacterial growth | significant leakage | reduced cell-rounding | slightly elevated LDH release | – | Surface YscF staining (YscF): reduced
6 | Cc1ccc(NC(=O)Nc2cc3c(cc2N2CCCC2)n(C)c(=O)n3C)cc1C [Compound C34, 1-(1,3-dimethyl-2-oxo-6-pyrrolidin-1-yl-benzimidazol-5-yl)-3-(3,4-dimethylphenyl)urea] | no effect on bacterial growth | elevated levels of Yop leakage | reduced cell-rounding | – | consistently weaker | Inhibition of YopE-mediated cell rounding [1]: potent inhibitor of cell-rounding; Ability to secrete Yops (Yop secretion): secreted less, but detectable levels of Yops; YopE translocation into HEp-2 cells [2]: did not inhibit translocation of YopE
7 | Cc1ccc(C2=N/C(=C/Nc3ccc4c(c3)OCCO4)C(=O)O2)cc1 [Compound C38, (4E)-4-[(2,3-dihydro-1,4-benzodioxin-6-ylamino)methylene]-2-(p-tolyl)oxazol-5-one] | no effect on bacterial growth | elevated levels of Yop leakage | reduced cell-rounding | – | – | Surface YscF staining (YscF): reduced
8 | O=C(O)CCCN1C(=O)c2cccc3cccc(c23)C1=O [Virstatin] | – | – | – | – | – | Bacterial burden on mice infected with V. cholerae (V. cholerae [9]): reduces the bacterial burden; Effects on bacterial growth (V. cholerae [10]): without deleterious effects on bacterial growth
